US20260102359A1, “COMBINATION TREATMENT OF DERMAL AND TRANSDERMAL FIBROTIC DISEASES, DISORDERS AND ASSOCIATED PAIN AND INFLAMMATION” (ERESINA, LLC, priority 2022, published 2026)
Structures can show the parent of a compound that is named as a salt. Where a SMILES comes first, the peptide text is derived from it. Bridges are numbered along the chain shown (N, C = ends). [ ]: non-standard residue; d: D form. hArg = N=C(N)NCCCC[C@H](N)C(=O)O; Mpa = O=C(O)CCS

System: hDMFa myofibroblast cells

Row | Molecule | Compound Myofibroblast Cytotoxicity Activity
1 | N=C(N)NCCCC[C@@H]1NC(=O)CCSSC[C@@H](C(N)=O)NC(=O)[C@@H]2CCCN2C(=O)[C@H](Cc2c[nH]c3ccccc23)NC(=O)[C@H](CC(=O)O)NC(=O)CNC1=O [Cmpd 424, Eptifibatide Acetate] ([Mpa][hArg]GDWPC-NH2; disulfide 1-7) | ++
2 | C=C(c1ccc(C(=O)O)cc1)c1cc2c(cc1C)C(C)(C)CCC2(C)C [Cmpd 178, Bexarotene] | ++++
3 | CC(=O)Oc1ccccc1C(=O)Nc1ncc([N+](=O)[O-])s1 [Cmpd 718, Nitazoxanide] | +++
4 | Cc1c(S(=O)(=O)[O-])oc2c1C(=O)C(=O)c1c-2ccc2c1CCCC2(C)C.[Na+] [Cmpd 914, Tanshinone IIA---sulfonic sodium] | ++
5 | C=C1/C(=C\C=C2/CCC[C@]3(C)[C@@H]([C@H](C)/C=C/[C@H](C)C(C)C)CC[C@@H]23)C[C@@H](O)C[C@@H]1O [Cmpd 386, Doxercalciferol] | +++
6 | O=C1c2c(O)ccc(O)c2C(=O)c2c(NCCNCCO)ccc(NCCNCCO)c21 [Cmpd 682, Mitoxantrone HCl] | +++++
7 | OC[C@H]1O[C@H](O[C@H]2[C@H](O)[C@@H](O)[C@@H](O[C@H]3[C@H](O)[C@@H](O)C(O)O[C@@H]3CO)O[C@@H]2CO)[C@H](O)[C@@H](O)[C@@H]1O (mixture of isomers) [Cmpd 634, Maltotriose] | +++
8 | COc1ccc2cc([C@H](C)C(=O)O)ccc2c1 [Cmpd 32, (S)-Naproxen] | ++
9 | CO/N=C(\C(=O)N[C@@H]1C(=O)N2C(C(=O)[O-])=C(CSC(=O)c3ccco3)CS[C@H]12)c1csc(N)n1.[Na+] [Cmpd 237, Ceftiofur sodium] | ++
10 | O=C(Nc1ccc([N+](=O)[O-])cc1Cl)c1cc(Cl)ccc1O [Cmpd 708, Niclosamide] | ++
11 | C[n+]1cc2c3c(ccc2c2ccc4cc5c(cc4c21)OCO5)OCO3 [Cmpd 851, Sanguinarine chloride] | ++++
12 | Oc1c(Cl)cc(Cl)c(Cl)c1Cc1c(O)c(Cl)cc(Cl)c1Cl [Cmpd 504, Hexachlorophene] | +++++
13 | O=C(O)c1ccc(O)c(O)c1 [Cmpd 804, Protocatechuic acid] | ++
14 | CCOC(=O)C1=C(COCCN)NC(C)=C(C(=O)OC)C1c1ccccc1Cl (stereo not drawn) [Cmpd 111, Amlodipine Besylate] | ++++
15 | D-(−)-Isoascorbic Acid [Cmpd 306] | +
16 | COc1cccc2c1C(=O)c1c(O)c3c(c(O)c1C2=O)C[C@@](O)(C(C)=O)C[C@@H]3O[C@H]1C[C@H](N)[C@H](O)[C@H](C)O1 [Cmpd 329, Daunorubicin HCl] | +++
17 | Nc1ccc(C(=O)O)c(O)c1 [Cmpd 59, 4-Aminosalicylic acid] | ++
18 | CN(C)c1ccc2nc3ccc(=[N+](C)C)cc-3sc2c1 [Cmpd 663, Methylene Blue] | +++++
19 | Fumalic acid [Cmpd 474] | ++

Row | Molecule | Compound Myofibroblast Cytotoxicity Activity
20 | Clc1ccc(C(Cn2ccnc2)OCc2ccsc2Cl)c(Cl)c1 (stereo not drawn) [Cmpd 947, Tioconazole] | +++
21 | CC1(C)S[C@@H]2[C@H](NC(=O)[C@H](N)c3ccccc3)C(=O)N2[C@H]1C(=O)OCOC(=O)[C@@H]1N2C(=O)C[C@H]2S(=O)(=O)C1(C)C [Cmpd 902, Sultamicillin] | ++
22 | O=C[C@H](O)[C@@H](O)[C@H](O[C@@H]1O[C@H](CO)[C@@H](O)[C@H](O)[C@H]1O)[C@H](O)CO [Cmpd 239, Cellobiose] | +++
23 | NCCCS(=O)(=O)O [Cmpd 961, Tramiprosate] | +++++
24 | O=C(O)CCNC(=O)c1ccccc1 [Cmpd 177, Betamipron] | +++++
25 | S=C(NCc1ccc2c(c1)OCO2)N1CCN(c2ncnc3c2oc2ccccc23)CC1 [Cmpd 117, Amuvatinib (MP-470,HPK 56)] | ++
26 | CC(=O)NO [Cmpd 81, Acetohydroxamic Acid] | ++++
27 | CN(C/C=C/C#CC(C)(C)C)Cc1cccc2ccccc12 [Cmpd 927, Terbinafine HCl] | ++++
28 | CSCC[C@H](N)C(=O)O [Cmpd 600, L-Methionine] | ++++
29 | CC[C@H](C)C(=O)O[C@H]1CCC=C2C=C[C@H](C)[C@H](CC[C@@H]3C[C@@H](O)CC(=O)O3)[C@H]21 [Cmpd 668, Mevastatin] | +++
30 | COC(=O)Nc1nc2ccc(C(=O)c3ccccc3)cc2[nH]1 [Cmpd 637, Mebendazole] | ++++
31 | CCOc1nc2cccc(C(=O)OC(C)OC(=O)OC3CCCCC3)c2n1Cc1ccc(-c2ccccc2-c2nnn[nH]2)cc1 (stereo not drawn) [Cmpd 211, Candesartan Cilexetil] | +++
32 | C/C=C1\NC(=O)[C@H]2CSSCC/C=C/[C@H](CC(=O)N[C@H](C(C)C)C(=O)N2)OC(=O)[C@H](C(C)C)NC1=O [Cmpd 839, Romidepsin (FK228,depsipeptide)] | ++
33 | CCOc1nc2cccc(C(=O)OCc3oc(=O)oc3C)c2n1Cc1ccc(-c2ccccc2-c2noc(=O)[nH]2)cc1 [Cmpd 149, Azilsartan Medoxomil] | ++
34 | O=C([O-])C[C@H](O)C[C@H](O)/C=C/c1c(C2CC2)nc2ccccc2c1-c1ccc(F)cc1.O=C([O-])C[C@H](O)C[C@H](O)/C=C/c1c(C2CC2)nc2ccccc2c1-c1ccc(F)cc1.[Ca+2] [Cmpd 786, Pitavastatin Calcium] | +++
35 | NCc1ccc(C(=O)O)cc1 [Cmpd 56] | ++
36 | O=C(O)c1ccc(O)cc1 [Cmpd 61] | ++++
37 | CC1=C(C/C=C(\C)CCC[C@H](C)CCC[C@H](C)CCCC(C)C)C(=O)c2ccccc2C1=O [Cmpd 1010, Vitamin K1] | ++
38 | CCCC(CCC)C(=O)O [Cmpd 993, Valproic acid] | +++

Row | Molecule | Compound Myofibroblast Cytotoxicity Activity
39 | C[C@H](CCC(=O)O)[C@H]1CC[C@H]2[C@@H]3[C@@H](O)C[C@@H]4C[C@H](O)CC[C@]4(C)[C@H]3CC[C@]12C [Cmpd 988, Ursodeoxycholic Acid] | +
40 | Clc1ccc(C(Cn2ccnc2)OCc2csc3c(Cl)cccc23)c(Cl)c1 (stereo not drawn) [Cmpd 860, Sertaconazole nitrate] | +++++
41 | Oc1c(Br)cc(Br)c2cccnc12 [Cmpd 194, Broxyquinoline] | +++
42 | NCC(=O)NCC(=O)O [Cmpd 489, Glycylglycine] (H-Gly-Gly-OH) | ++
43 | Cc1cc(C(C#N)c2ccc(Cl)cc2)c(Cl)cc1NC(=O)c1cc(I)cc(I)c1[O-].[Na+] (stereo not drawn) [Cmpd 288, Closantel Sodium] | +++
44 | COc1cccc2c1cc([N+](=O)[O-])c1c(C(=O)O)cc3c(c12)OCO3 [Cmpd 130, Aristolochic Acid A] | ++
45 | CCCc1nn(C)c2c(=O)[nH]c(-c3cc(S(=O)(=O)N4CCN(C)CC4)ccc3OCC)nc12.CS(=O)(=O)O [Cmpd 862, Sildenafil mesylate] | ++
46 | Cilengitide [Cmpd 261] | ++++
47 | O=c1sn(-c2cccc3ccccc23)c(=O)n1Cc1ccccc1 [Cmpd 946, Tideglusib] | ++
48 | CC(=O)OC(C)C[N+](C)(C)C (stereo not drawn) [Cmpd 655, Methacholine chloride] | ++
49 | CCCC(=O)OCOC(=O)C1=C(C)NC(C)=C(C(=O)OC)C1c1cccc(Cl)c1Cl (stereo not drawn) [Cmpd 279, Clevidipine Butyrate] | ++
50 | O=C(O)c1cc(-c2ccccc2)nc2ccccc12 [Cmpd 265, Cinchophen] | ++
51 | CCN(C(=O)c1c(O)c2c(Cl)cccc2n(C)c1=O)c1ccccc1 [Cmpd 559, Laquinimod (ABR-215062)] | ++++
52 | OC1OC[C@H](O)[C@H](O)[C@H]1O (mixture of isomers) [Cmpd 560, L-Arabinose] | ++++
53 | Cc1cc(-c2ccc(/N=N/c3ccc4c(S(=O)(=O)[O-])cc(S(=O)(=O)[O-])c(N)c4c3O)c(C)c2)ccc1/N=N/c1ccc2c(S(=O)(=O)[O-])cc(S(=O)(=O)[O-])c(N)c2c1O.[Na+].[Na+].[Na+].[Na+] [Cmpd 445, Evans Blue tetrasodium salt] | ++
54 | CCCCC(=O)O[C@H]1CC[C@H]2[C@@H]3CCc4cc(O)ccc4[C@H]3CC[C@]12C [Cmpd 431, Estradiol valerate] | +++
55 | Clc1ccc(COC(Cn2ccnc2)c2ccc(Cl)cc2Cl)c(Cl)c1 (stereo not drawn) [Cmpd 671, Miconazole] | +++
56 | Cc1ccc(C(=O)N(CCCN)[C@@H](c2nc3cc(Cl)ccc3c(=O)n2Cc2ccccc2)C(C)C)cc1 [Cmpd 543, Ispinesib (SB-715992)] | +++++
57 | COC(=O)[C@]12CCC(C)(C)C[C@H]1[C@H]1C(=O)C=C3[C@@]4(C)C=C(C#N)C(=O)C(C)(C)[C@@H]4CC[C@@]3(C)[C@]1(C)CC2 [Cmpd 156, Bardoxolone methyl] | +++++
